Read-outs that look alike come from different tables or passages of the source.
Experiments:
[1] = system: Corn; test: Greenhouse test Procedure VI: biocide and antidote in furrow, herbicide PPI in cover layer (Examples 43-47, 59-61; Tables 42-46, 58-60); type: in vivo; conditions: for safener efficacy, comparison: COUNTER 15G + PURSUIT/co-herbicides, Example 61; for safening: COUNTER 15G/PURSUIT interaction, Example 47; for % Inhibition Corn: Antidote + Biocide No. 1 in furrow
Source text: This procedure describes interaction among herbicide, biocide and antidote when the herbicide is incorporated in a soil cover layer and the biocide and the antidote are applied in a soil furrow containing crop seed before emergence of the crop. The soil and seeding depth were described in Procedure IV. A first container was designated as an untreated control, a second container was designated as a herbicide control, a third container was designated as a herbicide + biocide control and a fourth container as a herbicide + biocide + antidote test container. The biocide and antidote were formulated as granules. The biocide was applied to the soil furrows of the third and fourth containers at an application rate of 1.1 mg of active compound per cm of row. The antidote was applied to the soil furrow of the fourth container at an application rate of 0.37 mg of active compound per cm of row. A measured amount of the herbicide dispersed or dissolved in acetone was applied to a measured quantity of soil. The quantity of soil treated with the herbicide was thoroughly mixed to incorporate the herbicide. Samples of this soil were used to cover the seed beds of the second, third and fourth containers. For each test series, the seed bed of the first container was likewise covered by a soil layer not treated with herbicide and without biocide or antidote in the soil furrow.
The containers were then placed on a bench in a greenhouse. Watering was by subirrigation plus overhead irrigation after the plants emerged. All treatments were run in duplicate. Plant response was observed according to Procedure IV. Variations in this procedure will be noted in the examples.
In continuing tests to evaluate the variations of this invention, a series of tests were conducted to determine the efficacy of the above safeners in Examples 39-42 to alleviate corn injury induced by the interaction of various additional commercial sulfonylurea herbicides with COUNTER 15G insecticide. In this example, the tests were conducted according to Procedure VI above. In modifications of that procedure, herbicides were applied to soil samples as acetone/water suspensions, incorporated by shaking in a closed container, with subsamples used to cover furrow-treated 10.2 cm pots. Pots were subirrigated followed by overhead misting on days 6-10.
This example was designed to test the safening effect of those above safeners used in this test series to relieve corn injury by negative synergism induced by interaction of COUNTER 15G and three imidazolinone herbicides, i.e., imazaquin and imazapyr (used in the POE tests in Example 41) and AC 263222 (a.i. in CADRE® herbicide). As differing from the tests in Example 41, this test was a PPI test according to Procedure VI described above. Observation of test results (Table 43) were taken thirteen 913) days after in-furrow PPI preparation.
This example describes PPI tests to evaluate said test safeners in this series with analogs of the sulfonamide herbicides tested under POE herbicide application procedures described in Example 42. In these tests, conducted according to Procedure VI described above, Herbicide Nos. 20, 22 and 24 were applied PPI with the insecticide and antidote. Observations of tests results were made thirteen days after PPI initiation.
An additional three (3) sulfonamide herbicide analogs were tested simultaneously and under the same conditions described in Example 45.
Another test of this invention involved the safening effects of the safeners in this series against negative synergy inducted by the interaction of COUNTER 15G and a sulfonylurea herbicide (OUST®), Herbicide No. 13, and PURSUIT, an imidazolinone herbicide, No. 6. Test conditions were the same as those in Examples 43-46. Other procedures for applying herbicidal formulations are as described in Example 42. […]

[2] = system: Corn; conditions: for relieving corn injury, comparison: Example 29, COUNTER/PURSUIT negative synergy; for antidote activity: COUNTER with BEACON, PURSUIT (POE) or XRD-498 (PPI), Tables 29-37

SMILES: COC(=O)COC(c1ccccc1)c1ccccc1 [Antidote No. 12, Acetic acid, (diphenylmethoxy)-, methyl ester]
- safener efficacy, comparison [1]: more effective than flurazole or MON-4660
- safener efficacy ([1]; COUNTER 15G + XRD-498/co-herbicide mixture, Example 60): most effective safener
- safening [1]: good activity
- relieving corn injury, comparison [2]: more active than Antidote No. 28

SMILES: O=C(OCc1ccccc1)c1sc(Cl)nc1C(F)(F)F [Antidote No. 7, 5-Thiazolecarboxylic acid, 2-chloro-4-(trifluoromethyl)-, (phenylmethyl) ester]
- safening [1]: less effective than the other safeners
- antidote activity [2]: slightly more active than other thiazoles tested

SMILES: N#CCOc1ccc(Cl)c2cccnc12 [compound 33]
- % Inhibition Corn ([1]; Herbicide No. 6 0.14 Kg/Ha PPI): 20%
- % Inhibition Corn ([1]; Herbicide No. 11 0.0044 Kg/Ha PPI): 20%
- % Inhibition Corn ([1]; Herbicide No. 12 0.0044 Kg/Ha PPI): 20%
- % Inhibition Corn ([1]; Herbicide No. 13 0.0011 Kg/Ha PPI): 40%
- % Inhibition Corn ([1]; Herbicide No. 13 0.0022 Kg/Ha PPI): 90%
- % Inhibition Corn ([1]; Herbicide No. 14 0.07 Kg/Ha PPI): 10%
- % Inhibition Corn ([1]; Herbicide No. 16 0.07 Kg/Ha PPI, 13 days): 35%
- % Inhibition Corn ([1]; Herbicide No. 17 0.14 Kg/Ha PPI, 13 days): 20%
- % Inhibition Corn ([1]; Herbicide No. 18 0.04 Kg/Ha PPI, 13 days): 5%
- % Inhibition Corn ([1]; Herbicide No. 20 1.12 Kg/Ha PPI, 13 days): 50%
- % Inhibition Corn ([1]; Herbicide No. 22 0.28 Kg/Ha PPI, 13 days): 5%
- % Inhibition Corn ([1]; Herbicide No. 24 0.14 Kg/Ha PPI, 13 days): 40%
- % Inhibition Corn ([1]; Herbicide No. 25 0.14 Kg/Ha PPI, 13 days): 20%
- % Inhibition Corn ([1]; Herbicide No. 26 2.24 Kg/Ha PPI, 13 days): 10%
- % Inhibition Corn ([1]; Herbicide No. 28 0.04 Kg/Ha PPI, 13 days): 30%
- safener activity ([2]; ACCENT POE + OP insecticides PPI, Tables 11-14): most active
- % Inhibition 5 DAP Corn ([2]; Antidote 4.48 + Biocide No. 1 8.96 Kg/Ha PPI, Herb. No. 8 0.07, 5 DAP, before herbicide application): 25%
- % Inhibition 13 DAP Corn ([2]; Antidote 4.48 + Biocide No. 1 8.96 Kg/Ha PPI, Herb. No. 8 0.07 POE, 13 DAP): 20%
- % Inhibition Corn ([2]; Antidote 4.48 + Biocide No. 1 8.96 Kg/Ha PPI, Herbicide No. 7 0.28 POE, 13 days after planting): 15%
- % Inhibition 5 DAP Corn ([2]; Herb. […], 5 DAP, before herbicide application): 0%
- safener activity ([2]; PURSUIT POE + insecticides PPI, Tables 15-18): most active
- % Inhibition Corn ([2]; Table 14: Herbicide No. 7 (ACCENT) 0.84 Kg/Ha POE + Biocide No. 2 8.96 Kg/Ha PPI + antidote 4.48 Kg/Ha PPI, 13 days after planting, 8 days after herbicide): 0%
- % Inhibition Corn ([2]; […], 13 days after planting, 8 days after herbicide): 10%
- % Inhibition Corn ([2]; […], observed 10 days after herbicide application): 40%
- % Inhibition 5 DAP Corn ([2]; in vivo): 30%
- % Inhibition 13 DAP Corn ([2]; in vivo): 20%
- effect on corn before application of the herbicide ([2]; in vivo): Some injury
- activity in reducing corn injury ([2]; primisulfuron POE + biocides PPI, Tables 8-10): most active

SMILES: CC1(C)OC(c2ccco2)CN1C(=O)C(Cl)Cl (centres unmarked) [Antidote No. 1, Oxazolidine, 3-(dichloroacetyl)-2,2-dimethyl-5-(2-furanyl)-]
- safener efficacy, comparison [1]: more effective than flurazole or MON-4660
- safening [1]: good activity
- antidote activity [2]: most active antidote
- relieving corn injury, comparison [2]: more active than Antidote No. 28

— patent EP0565593B1, “REDUCING PESTICIDAL INTERACTIONS IN CROPS” (priority 1990, dated 1992)
